From patent publication US20060130162A1, “Shrimp and the production thereof” (priority 2002, published 2006)
“And” between values parts separate entries of the source, which are not always exact repeats. Equal entries are not always repeated.

Test system: Juvenile shrimp
Test: Carotenoid content of shrimp fed lutein-enriched Designer Diet (HPLC carotenoid analysis)
Type: in vivo
Design: AsX (astaxanthin) content of shrimp / Lutein content of shrimp / Other carotenoid content of shrimp / Total carotenoid content of shrimp / AsX (astaxanthin) content of shrimp, Mean / Lutein content of shrimp, Mean / Other carotenoid content of shrimp, Mean / Total carotenoid content of shrimp, Mean: unit not given here
Method: Juvenile shrimp (1-5 g) were cultured in 20 L tanks (5-10 shrimp per tank) at 23 degrees Celsius using standard shrimp diets (e.g., Rangen 35/2.5 shrimp diet). Test diets were prepared containing a 2:1 mixture of Rangen control feed with Lutein (Twin Labs) for a final lutein concentration in the diet of 8g/kg diet. Shrimp were fed at 0.3% body weight 2×/day for the duration of the experiment.
Following 14 days of feeding, the shrimp were collected, frozen to −20° C. and lyophilized prior to chemical analysis.

[1] = Mean of lutein group, lutein 8g/kg diet, 14 days of feeding
[2] = individual sample, lutein 8g/kg diet, 14 days of feeding

## CC1=C[C@H](O)CC(C)(C)[C@H]1/C=C/C(C)=C/C=C/C(C)=C/C=C/C=C(C)/C=C/C=C(C)/C=C/C1=C(C)C[C@@H](O)CC1(C)C [Lutein]
[1]
  A/L (astaxanthin / lutein), Mean: 2.23.
  A/T (astaxanthin / total carotenoids), Mean: 53%
  AsX (astaxanthin) content of shrimp, Mean: 6.24
  L + O/T (lutein + other / total carotenoids), Mean: 47%
  L/T (lutein / total carotenoids), Mean: 33%
  Lutein content of shrimp, Mean: 4.64
  Other carotenoid content of shrimp, Mean: 1.62
  Total carotenoid content of shrimp, Mean: 12.49
Before cooking and after cooking, compared with non-enriched shrimp
  Effect of lutein enrichment on shrimp appearance (FIG. 1): larger, more colorful
[2]
  A/L (astaxanthin / lutein): 3.79 and 1.80 and 0.49 and 1.09 and 3.99
  A/T (astaxanthin / total carotenoids): 68% and 54% and 30% and 45% and 70%
  AsX (astaxanthin) content of shrimp: 6.45 and 4.91 and 4.63 and 8.37 and 6.82
  L + O/T (lutein + other / total carotenoids): 32% and 46% and 70% and 55% and 30%
  L/T (lutein / total carotenoids): 18% (2×) and 30% and 61% and 41%
  Lutein content of shrimp: 1.70 and 2.73 and 9.39 and 7.65 and 1.71
  Other carotenoid content of shrimp: 1.38 and 1.40 and 1.47 and 2.70 and 1.15
  Total carotenoid content of shrimp: 9.53 and 9.04 and 15.49 and 18.72 and 9.68
